Where two headings read alike, the source gives them in different places.
Legend:
[1] = system: T1, murine Abcg2; assay: Tissue distribution in wild-type and Abcg2−/− male mice; assay type: in vivo; conditions: FVB/N, mouse, sc, wild-type male mice, 10 mg/kg s.c.
T1 construct: from tissue; host or cells: whole animal: wild-type vs Abcg2-/- mice, >99% FVB/N background
Protocol: (§1) All in vivo experiments were carried out using wild-type and Abcg2^−/− mice aged between 8 and 17 weeks, all of >99% FVB/N genetic background, generated and gently supplied by A. H. Schinkel (Netherlands Cancer Institute). Mice were housed and handled complying with institutional and ARRIVE guidelines and European legislation (EU Directive 2010/63/EU for animal experiments). Additionally, experimental procedures were approved by the Animal Care and Use Committee of the University of León and the Junta de Castilla y León (ULE_011_2019).
(§2) For pharmacokinetic experiments, a single dose of nitroxynil at 10 mg/kg was administered subcutaneously to wild-type and Abcg2^−/− male mice (n = 4–5, for each time point). Distomicide® (250 mg/mL) commercial solution was dissolved in saline (sodium chloride 0.9%) and dosed at 200 μL per 30 g body weight. Blood samples were collected at different time points (0.5, 3, 4.5, 6, 24, 48 and 96 h) and heparinized blood samples were centrifugated for 15 min at 3000× g. Organs were also collected at 24 and 96 h after euthanasia. Linear trapezoidal rule was used to calculate the area under the plasma concentration–time curve (AUC) parameter.
Plasma, milk and tissue samples from each animal were individually processed and analyzed without pooling, while samples from transport assays were not processed. Tissue samples were homogenized in a mixture of 50% water/50% methanol HCl 0.5% (v/v); 1 mL solution per 0.1 g tissue. The entire amount of collected milk (74.7–295.1 mg) and 100 μL plasma and tissue homogenates were processed. To each sample, 10 μL of a nitrofurantoin solution (10 μg/mL for plasma and milk and 2 μg/mL for homogenized tissues) was added as an internal standard and 150 μL acetonitrile was used to precipitate the proteins. The mixture was vortexed horizontally for 15 min and centrifugated at 10,000× g for 5 min at 4 °C. Supernatant was transferred to a new tube and dried at 40 °C under N2 stream. Samples were reconstituted in 100 μL of mobile phase and 50 μL was injected into HPLC. Standards were subjected to the same procedures as samples.
Waters 2695 separation module and Waters 2998 UV photodiode array detector set at 270 nm were used for samples analysis. Chromatographic conditions for nitroxynil detection were based on previously described methods, with minor modifications. Chromatographic separation was achieved on a reverse-phase column (Synergy 4 μm Hydro–RP 80 Å, 250 × 4.60 mm; Phenomenex®, Torrance, CA, USA) using an isocratic binary mobile phase consisting of 25 mM potassium phosphate monobasic (KH2PO4), pH 4: acetonitrile (70:30 for culture samples and 80:20 for animal samples) at a flow rate of 1 mL/min. Autosampler and column temperature were 4 °C and 40 °C, respectively. Limit of detection (LOD) and quantification (LOQ) were calculated as previously described. For cell culture samples, LOD and LOQ were 0.003 μg/mL and 0.007 μg/mL, respectively. For in vivo samples, LOD was in the range of 0.01–0.07 μg/mL and LOQ in the range of 0.03–0.15 μg/mL.

[2] = target: T2, murine Abcg2 (Mus musculus, UniProt Q7TMS5); assay: Transepithelial transport assay in MDCK-II cells transduced with murine Abcg2; assay type: in vitro ADME; design: expressed in transfected cells; host or cells: MDCK-II (canine kidney) subclone, provided by A. H. Schinkel (Netherlands Cancer Institute); conditions: MDCK-II mAbcg2, nitroxynil 10 µM, no Ko143, read-out: Relative efflux transport ratio (BA/AB)
T2 sequence (Q7TMS5 1-657): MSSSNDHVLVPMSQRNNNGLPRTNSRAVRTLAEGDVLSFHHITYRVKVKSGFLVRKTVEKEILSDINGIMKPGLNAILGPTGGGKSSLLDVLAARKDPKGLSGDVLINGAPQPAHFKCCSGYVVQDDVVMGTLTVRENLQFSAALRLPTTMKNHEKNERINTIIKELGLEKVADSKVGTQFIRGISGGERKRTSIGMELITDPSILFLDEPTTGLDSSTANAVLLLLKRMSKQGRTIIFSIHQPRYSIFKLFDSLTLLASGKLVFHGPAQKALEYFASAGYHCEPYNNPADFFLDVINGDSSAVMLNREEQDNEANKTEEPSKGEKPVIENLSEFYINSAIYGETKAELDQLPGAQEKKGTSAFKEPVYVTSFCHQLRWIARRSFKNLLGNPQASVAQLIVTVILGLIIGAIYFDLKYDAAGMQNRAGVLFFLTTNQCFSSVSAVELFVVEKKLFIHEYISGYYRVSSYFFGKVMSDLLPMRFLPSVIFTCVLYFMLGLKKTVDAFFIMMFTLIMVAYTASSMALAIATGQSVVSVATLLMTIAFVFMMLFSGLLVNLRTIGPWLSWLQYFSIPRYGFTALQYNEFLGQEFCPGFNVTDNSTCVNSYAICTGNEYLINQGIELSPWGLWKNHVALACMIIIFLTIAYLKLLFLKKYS
Protocol: Parental Madin–Darby canine kidney epithelial cells (MDCK–II) and their subclones transduced with murine (mAbcg2) and human (hABCG2) variants of ABCG2 were kindly provided by Dr. A. H. Schinkel (Netherlands Cancer Institute). Transduced MDCK–II cells with the ovine (oABCG2) and bovine (bABCG2) variants were previously generated by our group. Cells were cultured as described elsewhere.
Transepithelial transport assays were carried out as previously described with minor variations, using Hanks’ balanced salt solution (Sigma-Aldrich) supplemented with HEPES (25 mM), with or without Ko143 (1 μM), and containing or not nitroxynil 10 μM. […] At the end of the experiment, confluence of the monolayer was measured with the previously described Lucifer Yellow permeability test, with minor modifications. The appearance of nitroxynil in the opposite side of the well was measured by HPLC as later described. Active transport was expressed as relative efflux transport ratio (apically directed transport percentage divided by the basolaterally directed translocation percentage) at 4 h and referred to the initial concentration. […]
(§3) Waters 2695 separation module and Waters 2998 UV photodiode array detector set at 270 nm were used for samples analysis. […] Limit of detection (LOD) and quantification (LOQ) were calculated as previously described. […]

[3] = system: murine Abcg2; assay: Plasma pharmacokinetics in wild-type and Abcg2−/− male mice; assay type: in vivo; conditions: 10 mg/kg s.c.
Protocol: as §1
as §2, with “Organs were also collected at 24 and 96 h after euthanasia. Linear trapezoidal rule was used to calculate the area under the plasma concentration–time curve (AUC) parameter.” left out
Plasma, milk and tissue samples from each animal were individually processed and analyzed without pooling, while samples from transport assays were not processed. […]
as §3

Kp at 96 h ([1]; kidney and plasma, 96 h, read-out: Tissue/plasma ratio, kidney): 0.06 ± 0.01
concentration at 24 h ([1]; kidney, read-out: Tissue concentration, kidney): 5900 ± 1200 ng/g
concentration at 96 h ([1]; kidney, 96 h): 900 ± 100 ng/g
concentration at 24 h ([1]; liver, read-out: Tissue concentration, liver): 900 ± 300 ng/g
concentration at 24 h ([1]; small intestine, read-out: Levels of nitroxynil in small intestine): 1100 ± 200 ng/mL
concentration at 24 h ([1]; small intestine, read-out: Tissue concentration, small intestine): 1100 ± 200 ng/g
concentration at 24 h ([1]; spleen, read-out: Accumulation in spleen): 1400 ± 300 ng/mL
concentration at 24 h ([1]; spleen, read-out: Tissue concentration, spleen): 1400 ± 300 ng/g
concentration at 24 h ([1]; testis, read-out: Concentration in testis): 2600 ± 200 ng/mL
concentration at 24 h ([1]; testis, read-out: Tissue concentration, testis): 2600 ± 200 ng/g
efflux ratio at 4 h, 10 µM [2]: 32.3 ± 7.59
AUC ([3]; FVB/N, mouse, plasma, sc, Abcg2−/− male mice, 0.5-96 h): 3530 ± 130 µg·h/mL
Time of Cmax (sampling point) ([3]; both type of mice (wild-type and Abcg2−/−), male): 3 h
SMILES: N#Cc1cc(I)c(O)c([N+](=O)[O-])c1 [nitroxynil]
